Converted amounts (≈) assume the structure as drawn.
Experiments:
Experiment in all cases: Minimum Inhibitory Concentration (MIC), RPMI medium
Format in all cases: cell-based
A. flavus = details: Aspergillus flavus, >80% growth inhibition
Method: (§1) Between 1 and 5 mgs of the compound were accurately weighed out into a sterile Eppendorf tube. The compound was dissolved in DMSO to give a solution containing 5 mg/mL. Tubes were stored at −20° C. until required.
(§2) On the day of testing thawed solutions were vortex mixed to ensure homogeneity. 30 μL of solution was removed and added to 570 μL of sterile water in a separate sterile Eppendorf. The thoroughly mixed solution was used to prepare a series of doubling dilutions in water, in a deep well plate. Thirteen replicate plates were prepared using a Minitrak by aspirating 20 μL from each well into eleven clear polystyrene 96 well plates.
(§3) Spores of Aspergillus and Scedosporium were harvested from cultures grown on Sabarauds agar for 5 days, and resuspended in PBS/Tween 80 to approx 1×10^7 cfu/mL. Each organism suspension was diluted in RPMI medium, containing 2% glucose and 0.135 M MOPS buffer (pH 7.0) to 0.5-2×10^4 cfu/mL. 80 μL of an organism suspension was added to each well of the plate containing drug dilutions.
(§4) This produced MIC plates with a drug range 50-0.05 mg/L and organism inocula of 1-2×10^4 cfu/mL. All plates were incubated for 24-48 h at 35° C. Growth was assessed by monitoring the optical density at 485 nm for each well. The MIC of a compound is the lowest drug concentration that inhibits growth of an organism by >80% compared with a drug free control.

A. fumigatus 210 = details: Aspergillus fumigatus, >80% growth inhibition
Method: as §1, §2, §3, §4

A. fumigatus = details: Aspergillus fumigatus, >80% growth inhibition
Method: as §1, §2, §3, §4

A. niger = details: Aspergillus niger, >80% growth inhibition
Method: as §1, §2, §3, §4

A. terreus 49 = details: Aspergillus terreus, >80% growth inhibition
Method: as §1, §2, §3, §4

A. terreus = details: Aspergillus terreus, >80% growth inhibition
Method: as §1, §2, §3, §4

[1] = test system: Scedosporium apiospermum 13486
Method: as §1, §2, §3, §4

[2] = test system: Scedosporium apiospermum 15848
Method: as §1, §2, §3, §4

[3] = test system: Scedosporium apiospermum 451
Method: as §1, §2, §3, §4

[4] = test system: Scedosporium apiospermum 4883
Method: as §1, §2, §3, §4

[5] = test system: Scedosporium apiospermum 7935
Method: as §1, §2, §3, §4

[6] = test system: Scedosporium apiospermum 8353
Method: as §1, §2, §3, §4

[7] = test system: Scedosporium prolificans 18389; details: Lomentospora prolificans
Method: as §1, §2, §3, §4

[8] = test system: Scedosporium prolificans 206; details: Lomentospora prolificans
Method: as §1, §2, §3, §4

[9] = test system: Scedosporium prolificans 6322; details: Lomentospora prolificans
Method: as §1, §2, §3, §4

[10] = test system: Scedosporium species 15849
Method: as §1, §2, §3, §4

Compound | MIC (A. flavus) | MIC (A. fumigatus 210) | MIC (A. fumigatus) | MIC (A. niger) | MIC (A. terreus 49) | MIC (A. terreus) | MIC Scedosporium apiospermum 13486 [1] | MIC ([1]; Scedosporium apiospermum, 13486) | MIC [2] | MIC [3] | MIC [4] | MIC [5] | MIC [6] | MIC [7] | MIC [8] | MIC [9] | MIC [10]
Cc1cc(C)nc(N2CCN(c3ccc(NC(=O)C(=O)c4c(-c5ccccc5)cc(C)n4C)cc3O)CC2)c1 [Ref. Example 7, 2-(1,5-Dimethyl-3-phenyl-1H-pyrrol-2-yl)-N-{4-[4-(4,6-dimethyl-pyridin-2-yl)-piperazin-1-yl]-3-hydroxy-phenyl}-2-oxo-acetamide] | 0.04 to 0.06 µg/mL (≈ 0.0764 to 0.115 µM) | > 0.06 µg/mL | > 0.06 µg/mL | > 0.06 µg/mL | > 0.06 µg/mL | > 0.06 µg/mL |  |  |  |  |  |  |  |  |  |  | 
Cc1cc(-c2ccccc2)c(C(=O)C(=O)Nc2ccc(N3CCN(c4ccccn4)CC3)cc2)n1C [Ref. Example 6, 2-(1,5-Dimethyl-3-phenyl-1H-pyrrol-2-yl)-2-oxo-N-[4-(4-pyridin-2-yl-piperazin-1-yl)-phenyl]-acetamide] | 0.04 to 0.06 µg/mL (≈ 0.0834 to 0.125 µM) | 0.04 to 0.06 µg/mL (≈ 0.0834 to 0.125 µM) | 0.04 to 0.06 µg/mL (≈ 0.0834 to 0.125 µM) | > 0.06 µg/mL | 0.04 to 0.06 µg/mL (≈ 0.0834 to 0.125 µM) | 0.04 to 0.06 µg/mL (≈ 0.0834 to 0.125 µM) | F (a grade of F represents an MIC of greater than 0.06 mg/L) | > 0.06 µg/mL | > 0.06 µg/mL | > 0.06 µg/mL | > 0.06 µg/mL | > 0.06 µg/mL | > 0.06 µg/mL | > 0.06 µg/mL | > 0.06 µg/mL | > 0.06 µg/mL | > 0.06 µg/mL
Cc1cccc(N2CCN(c3ccc(NC(=O)C(=O)c4c(-c5ccccc5)cc(C)n4C)cc3)CC2)n1 [Ref. Example 5, 2-(1,5-Dimethyl-3-phenyl-1H-pyrrol-2-yl)-N-{4-[4-(6-methyl-pyridin-2-yl)-piperazin-1-yl]-phenyl}-2-oxo-acetamide] | 0.04 to 0.06 µg/mL (≈ 0.081 to 0.122 µM) | 0.04 to 0.06 µg/mL (≈ 0.081 to 0.122 µM) | 0.04 to 0.06 µg/mL (≈ 0.081 to 0.122 µM) | > 0.06 µg/mL | 0.04 to 0.06 µg/mL (≈ 0.081 to 0.122 µM) | 0.04 to 0.06 µg/mL (≈ 0.081 to 0.122 µM) |  |  |  |  |  |  |  |  |  |  | 
Cc1cc(-c2ccccc2)c(C(=O)C(=O)Nc2ccc(N3CCN(c4ccccn4)CC3)cc2F)n1C [Ref. Example 2, 2-(1,5-Dimethyl-3-phenyl-1H-pyrrol-2-yl)-N-[2-fluoro-4-(4-pyridin-2-yl-piperazin-1-yl)-phenyl]-2-oxo-acetamide] | 0.04 to 0.06 µg/mL (≈ 0.0804 to 0.121 µM) | 0.04 to 0.06 µg/mL (≈ 0.0804 to 0.121 µM) | 0.04 to 0.06 µg/mL (≈ 0.0804 to 0.121 µM) | 0.04 to 0.06 µg/mL (≈ 0.0804 to 0.121 µM) | 0.04 to 0.06 µg/mL (≈ 0.0804 to 0.121 µM) | 0.04 to 0.06 µg/mL (≈ 0.0804 to 0.121 µM) |  |  |  |  |  |  |  |  |  |  | 
[2H]c1c([2H])c(N2CCN(c3ncc(F)cn3)CC2)c([2H])c([2H])c1NC(=O)C(=O)c1c(-c2ccccc2)cc(C)n1C [Example 4, 2-(1,5-dimethyl-3-phenyl-1H-pyrrol-2-yl)-N-(4-(4-(5-fluoropyrimidin-2-yl)piperazin-1-yl)phenyl-2,3,5,6-d4)-2-oxoacetamide] | 0.04 to 0.06 µg/mL (≈ 0.0796 to 0.119 µM) | 0.04 to 0.06 µg/mL (≈ 0.0796 to 0.119 µM) | 0.04 to 0.06 µg/mL (≈ 0.0796 to 0.119 µM) | 0.04 to 0.06 µg/mL (≈ 0.0796 to 0.119 µM) | 0.04 to 0.06 µg/mL (≈ 0.0796 to 0.119 µM) | 0.04 to 0.06 µg/mL (≈ 0.0796 to 0.119 µM) |  |  |  |  |  |  |  |  |  |  | 
Cc1cc(C)nc(N2CCN(c3ccc(NC(=O)C(=O)c4c(-c5ccccc5)cc(C)n4C)c(Cl)c3)CC2)c1 [Ref. Example 8, N-{2-Chloro-4-[4-(4,6-dimethyl-pyridin-2-yl)-piperazin-1-yl]-phenyl}-2-(1,5-dimethyl-3-phenyl-1H-pyrrol-2-yl)-2-oxo-acetamide] | 0.04 to 0.06 µg/mL (≈ 0.0738 to 0.111 µM) | 0.04 to 0.06 µg/mL (≈ 0.0738 to 0.111 µM) | 0.04 to 0.06 µg/mL (≈ 0.0738 to 0.111 µM) | 0.04 to 0.06 µg/mL (≈ 0.0738 to 0.111 µM) | 0.04 to 0.06 µg/mL (≈ 0.0738 to 0.111 µM) | 0.04 to 0.06 µg/mL (≈ 0.0738 to 0.111 µM) |  |  |  |  |  |  |  |  |  |  | 
Cc1cc(C)nc(N2CCN(c3ccc(NC(=O)C(=O)c4c(-c5ccccc5)cc(C)n4C)cc3Cl)CC2)c1 [Ref. Example 9, N-{3-Chloro-4-[4-(4,6-dimethyl-pyridin-2-yl)-piperazin-1-yl]-phenyl}-2-(1,5-dimethyl-3-phenyl-1H-pyrrol-2-yl)-2-oxo-acetamide] | 0.04 to 0.06 µg/mL (≈ 0.0738 to 0.111 µM) | 0.04 to 0.06 µg/mL (≈ 0.0738 to 0.111 µM) | 0.04 to 0.06 µg/mL (≈ 0.0738 to 0.111 µM) | 0.04 to 0.06 µg/mL (≈ 0.0738 to 0.111 µM) | 0.04 to 0.06 µg/mL (≈ 0.0738 to 0.111 µM) | 0.04 to 0.06 µg/mL (≈ 0.0738 to 0.111 µM) |  |  |  |  |  |  |  |  |  |  | 
[2H]C1([2H])N(c2ccc(NC(=O)C(=O)c3c(-c4ccccc4)cc(C)n3C)cc2)C([2H])([2H])C([2H])([2H])N(c2ncc(F)cn2)C1([2H])[2H] [Example 3, 2-(1,5-dimethyl-3-phenyl-1H-pyrrol-2-yl)-N-(4-(4-(5-fluoropyrimidin-2-yl)piperazin-1-yl-2,2,3,3,5,5,6,6-d8)phenyl)-2-oxoacetamide] | 0.04 to 0.06 µg/mL (≈ 0.079 to 0.118 µM) | 0.04 to 0.06 µg/mL (≈ 0.079 to 0.118 µM) | 0.04 to 0.06 µg/mL (≈ 0.079 to 0.118 µM) | 0.04 to 0.06 µg/mL (≈ 0.079 to 0.118 µM) | 0.04 to 0.06 µg/mL (≈ 0.079 to 0.118 µM) | 0.04 to 0.06 µg/mL (≈ 0.079 to 0.118 µM) |  |  |  |  |  |  |  |  |  |  | 
Cc1ccnc(N2CCN(c3ccc(NC(=O)C(=O)c4c(-c5ccccc5)cc(C)n4C)cc3)CC2)c1 [Ref. Example 4, 2-(1,5-Dimethyl-3-phenyl-1H-pyrrol-2-yl)-N-{4-[4-(4-methyl-pyridin-2-yl)-piperazin-1-yl]-phenyl}-2-oxo-acetamide] | 0.04 to 0.06 µg/mL (≈ 0.081 to 0.122 µM) | 0.04 to 0.06 µg/mL (≈ 0.081 to 0.122 µM) | 0.04 to 0.06 µg/mL (≈ 0.081 to 0.122 µM) | 0.04 to 0.06 µg/mL (≈ 0.081 to 0.122 µM) | 0.04 to 0.06 µg/mL (≈ 0.081 to 0.122 µM) | 0.04 to 0.06 µg/mL (≈ 0.081 to 0.122 µM) |  |  |  |  |  |  |  |  |  |  | 
Cc1cc(-c2ccccc2)c(C(=O)C(=O)Nc2ccc(N3CCN(c4ccccn4)CC3)c(F)c2)n1C [Ref. Example 1, 2-(1,5-Dimethyl-3-phenyl-1H-pyrrol-2-yl)-N-[3-fluoro-4-(4-pyridin-2-yl-piperazin-1-yl)-phenyl]-2-oxo-acetamide] | > 0.06 µg/mL | 0.04 to 0.06 µg/mL (≈ 0.0804 to 0.121 µM) | 0.04 to 0.06 µg/mL (≈ 0.0804 to 0.121 µM) | 0.04 to 0.06 µg/mL (≈ 0.0804 to 0.121 µM) | 0.04 to 0.06 µg/mL (≈ 0.0804 to 0.121 µM) | 0.04 to 0.06 µg/mL (≈ 0.0804 to 0.121 µM) |  |  |  |  |  |  |  |  |  |  | 
Cc1cc(C)nc(N2CCN(c3ccc(NC(=O)C(=O)c4c(-c5ccccc5)cc(C)n4C)cc3C)CC2)c1 [Ref. Example 3, 2-(1,5-Dimethyl-3-phenyl-1H-pyrrol-2-yl)-N-{4-[4-(4,6-dimethyl-pyridin-2-yl)-piperazin-1-yl]-3-methyl-phenyl}-2-oxo-acetamide] | 0.04 to 0.06 µg/mL (≈ 0.0767 to 0.115 µM) | 0.04 to 0.06 µg/mL (≈ 0.0767 to 0.115 µM) | 0.04 to 0.06 µg/mL (≈ 0.0767 to 0.115 µM) | 0.04 to 0.06 µg/mL (≈ 0.0767 to 0.115 µM) | 0.04 to 0.06 µg/mL (≈ 0.0767 to 0.115 µM) | 0.04 to 0.06 µg/mL (≈ 0.0767 to 0.115 µM) |  |  |  |  |  |  |  |  |  |  | 

Reference: US10596150B2, “Antifungal agents” (F2G LIMITED, priority 2014, dated 2020)
